Where a name gives a salt, the structure may show the parent alone. Bounds are passed on as bounds.

The text below walks through data of patent US20250374926A1, “NOVEL DERIVATIVES OF NON-CODED AMINO ACIDS AND THEIR USE IN CROP PROTECTION” (FORTEPHEST LTD., priority 2022, published 2025).

The first experiment has as its system Lettuce seeds. Put plainly: Filter paper bioassay on germination and early development of Lettuce seeds. The format is in vivo. Conditions: 144 h, lowest concentration causing malformation of radicle or shoots; visually assessed six days after beginning; 0 to 1 mmol/l; read-out: MEC, score (Minimal Effective Concentration, activity score) (converted). The procedure:
Materials: Seeds of Lettuce R. (Super-Jericho, non-sterilized) were obtained from Ben Shahar Moshe Ltd., 99% purity. The test compounds listed in Table 3 below were synthesized de novo or purchased from different vendors. Bioassays: Filter Paper Bioassays with Lettuce seeds were performed following Bertin et al. 2009 with modifications as described below. Seeds were placed on Whatman no. 1 filter paper (Whatman, Middlesex, U.K.) in Petri dishes (10 seeds per plate) with 2.0 ml of an aqueous solution of test material in a concentration ranging from 0 (control) to 1 mmol/l. The Petri dishes were arranged in a tray tilted at a 45-degree angle and were kept in the dark for 48 hours. Then trays with plates were transferred to the growth chamber with a 6/18 dark/light cycle for four days. Each experiment was performed in at least two repeats.
The development of plants' radicles and shoots was visually assessed six days after the beginning of the test to determine the Minimal Effective Concentration (MEC) of a test material. In the context of the invention, MEC is defined as the lowest concentration level of a test material that caused deviation (malformation of radicle or shoots).
Consider `CCOC(=O)CSc1csc(Cl)n1` [compound 5850, ethyl 2-[(2-chloro-1,3-thiazol-4-yl)sulfanyl]acetate], for which the minimal effective concentration is 10 µM.

With `O=C(O)CS(=O)(=O)c1csc(Cl)n1` [compound 5851, (2-chloro-1,3-thiazol-4-sulfonyl)acetic acid], the minimal effective concentration is 1 µM.

`O=C(O)CSc1cccc(Br)n1` [compound 6688, [(6-bromopyridin-2-yl)sulfanyl]acetic acid]: the minimal effective concentration is 1 µM.

For `CCOC(=O)CSc1cccc(Br)n1` [compound 6693, ethyl [(6-bromopyridin-2-yl)sulfanyl]acetate], the minimal effective concentration is 1 µM.

Consider `CCCCOC(=O)CSc1nc(Cl)ccc1Br` [compound 6694, butyl [(3-bromo-6-chloropyridin-2-yl)sulfanyl]acetate], for which the minimal effective concentration is 1 µM.

`CCCCOC(=O)CSc1ccc(Br)c(Br)n1` [compound 6700, butyl [(5,6-dibromopyridin-2-yl)sulfanyl]acetate]: the minimal effective concentration was 1 µM.

Regarding `O=C(O)CNc1cccc(Br)n1` [compound 6702, 2-[(6-bromopyridin-2-yl)amino]acetic acid], the minimal effective concentration is 1 µM.

In the case of `CCCCOC(=O)C[S+]([O-])c1ccc(Br)c(Br)n1` (stereo not drawn) [compound 6703, butyl (5,6-dibromopyridine-2-sulfinyl)acetate], the minimal effective concentration is 10 µM.

Consider `NCCCCNc1ccc(Br)c(Br)n1` [compound 6709, N1-(5,6-dibromopyridin-2-yl)butane-1,4-diamine], for which the minimal effective concentration is 10 µM.

Regarding `CCCCCCCCOC(=O)CSc1cccc(Br)n1` [compound 7106, octyl [(6-bromopyridin-2-yl)sulfanyl]acetate], the minimal effective concentration is 10 µM.

On to `O=C(O)CSc1nc(Cl)cs1` [compound 7109, 2-[(4-chloro-1,3-thiazol-2-yl)sulfanyl]acetic acid], for which the minimal effective concentration is 10 µM.

As to `CCOC(=O)CSc1nc(Cl)cs1` [compound 7112, ethyl [(4-chloro-1,3-thiazol-2-yl)sulfanyl]acetate], the minimal effective concentration is 10 µM.

For the compound `CCOC(=O)Cc1ccc(F)c(Br)n1` [compound 7117, ethyl (6-bromo-5-fluoropyridin-2-yl)acetate], the minimal effective concentration was 10 µM.

Regarding `CCOC(=O)CSc1nc(Cl)sc1Cl` [compound 7119, ethyl 2-[(2,5-dichloro-1,3-thiazol-4-yl)sulfanyl]acetate], the minimal effective concentration was 10 µM.

Take `O=C(Cc1ccccc1)NCCCNc1cccc(Br)n1` [compound 7121, N-{3-[(6-bromopyridin-2-yl)amino]propyl}-2-phenylacetamide]: the minimal effective concentration is 10 µM.

`O=C(O)CNc1ccc(Br)c(Br)n1` [compound 7122, 2-[(5,6-dibromopyridin-2-yl)amino]acetic acid]: the minimal effective concentration was 1 µM.

As to `O=C(O)CSc1nc(Br)ccc1Br` [compound 7124, [(3,6-dibromopyridin-2-yl)sulfanyl]acetic acid], the minimal effective concentration is 1 µM.

As for `O=C(O)CNc1nc(Cl)cs1` [compound 7125, 2-[(4-chloro-1,3-thiazol-2-yl)amino]acetic acid], the minimal effective concentration was 10 µM.

For `CCOC(=O)c1c[nH]cc1CC#N` [compound 7131, ethyl 4-(cyanomethyl)-1H-pyrrole-3-carboxylate], the minimal effective concentration is 10 µM.

For the compound `O=C(O)C[S+]([O-])c1nc(Cl)sc1Cl` (stereo not drawn) [compound 7137, (2,5-dichloro-1,3-thiazole-4-sulfinyl)acetic acid], the minimal effective concentration is 10 µM.

Take `O=C(O)CS(=O)(=O)c1nc(Cl)sc1Cl` [compound 7138, (2,5-dichloro-1,3-thiazol-4-sulfonyl)acetic acid]: the minimal effective concentration is 10 µM.

Turning to `CCOCCOCCOC(=O)CSc1ccc(Br)c(Br)n1` [compound 7139, 2-(2-ethoxyethoxy)ethyl [(5,6-dibromopyridin-2-yl)sulfanyl]acetate], the minimal effective concentration was 1 µM.

Regarding `O=C(O)CC#Cc1nc(Cl)sc1Cl` [compound 7145, 4-(2,5-dichloro-1,3-thiazol-4-yl)but-3-ynoic acid], the minimal effective concentration is 1 µM.

In the case of `O=C(O)CNc1c(Cl)csc1Cl` [compound 7147, 2-[(2,4-dichlorothiophen-3-yl)amino]acetic acid hydrochloride], the minimal effective concentration is 10 µM.

With `O=C(O)CNc1ccc(F)c(Br)n1` [compound 7148, 2-[(6-bromo-5-fluoropyridin-2-yl)amino]acetic acid], the minimal effective concentration is 10 µM.

For the compound `O=C(O)CSc1ccc(F)c(Br)n1` [compound 7151, [(6-bromo-5-fluoropyridin-2-yl)sulfanyl]acetic acid], the minimal effective concentration is below 1 µM.

As to `CCOC(=O)CSc1nc(Br)ccc1F` [compound 7160, ethyl 2-[(6-bromo-3-fluoropyridin-2-yl)sulfanyl]acetate], the minimal effective concentration was below 1 µM.

Consider `O=C(O)CCCCNc1ccc(F)c(Br)n1` [compound 7165, 5-[(6-bromo-5-fluoropyridin-2-yl)amino]pentanoic acid], for which the minimal effective concentration was 10 µM.

Consider `COC(=O)Cc1nc(Cl)sc1C#N` [compound 7167, methyl 2-(2-chloro-5-cyano-1,3-thiazol-4-yl)acetate], for which the minimal effective concentration is 10 µM.

Turning to `COC(=O)Cc1ncsc1C#N` [compound 7168, methyl 2-(5-cyano-1,3-thiazol-4-yl)acetate], the minimal effective concentration was 10 µM.

With `O=C(O)CNc1nc(Br)c(Br)cc1F` [compound 7169, 2-[(5,6-dibromo-3-fluoropyridin-2-yl)amino]acetic acid], the minimal effective concentration was 1 µM.

For the compound `O=C(O)CCCCNc1nc(Br)c(Br)cc1F` [compound 7170, 5-[(5,6-dibromo-3-fluoropyridin-2-yl)amino]pentanoic acid], the minimal effective concentration was 1 µM.

With `CCOCCOCCOC(=O)COc1ccc(Br)c(Br)n1` [compound 7172, 2-(2-ethoxyethoxy)ethyl [(5,6-dibromopyridin-2-yl)oxy]acetate], the minimal effective concentration was 1 µM.

For the compound `O=C(O)CCCSc1ccc(Br)c(Br)n1` [compound 7174, 4-[(5,6-dibromopyridin-2-yl)sulfanyl]butanoic acid], the minimal effective concentration is below 1 µM.

Turning to `O=C(O)CCSc1ccc(Br)c(Br)n1` [compound 7178, 3-[(5,6-dibromopyridin-2-yl)sulfanyl]propanoic acid], the minimal effective concentration was 1 µM.

For the compound `CC(Sc1ccc(Br)c(Br)n1)C(=O)O` (stereo not drawn) [compound 7182, 2-[(5,6-dibromopyridin-2-yl)sulfanyl]propanoic acid], the minimal effective concentration was 10 µM.

In the case of `O=C(O)CCCCSc1ccc(Br)c(Br)n1` [compound 7187, 5-[(5,6-dibromopyridin-2-yl)sulfanyl]pentanoic acid], the minimal effective concentration is 1 µM.

As for `CCOC(=O)C(Cl)(Cl)c1csc(Cl)n1` [compound 7188, ethyl dichloro(2-chloro-1,3-thiazol-4-yl)acetate], the minimal effective concentration was 100 µM.

Still in this experiment, the particulars now being: lowest concentration causing malformation of radicle or shoots; visually assessed six days after beginning; 0 to 1 mmol/l.
For `O=C(Cc1ccccc1)NCCCCNc1cccc(Br)n1` [compound 7123, N-{4-[(6-bromopyridin-2-y1)amino]butyl}-2-phenylacetamide], the activity score was 4 (0.01 mM).
